Test results as given in patent US12447117B2, “Composition and method of enhancing skin barrier using the same” (AMOREPACIFIC CORPORATION, priority 2018, dated 2025).

Tests used:
[1] = system: KRT10 (keratin 10) gene expression in normal human epidermal keratinocytes (NHEK); test: Expression level of keratinocyte differentiation marker KRT10 in UVB-irradiated NHEK (TAQMAN real-time PCR); type: cell-based; details: UVB 25 mJ/cm^2, 10 nM compound, harvested on fourth day of culture, versus UV-irradiated cells (FIG. 1)
Experimental: (§1) Normal human epidermal keratinocytes (NHEK) were cultured in a 6-well plate incubator. 24 hours later, the normal human epidermal keratinocytes (NHEK) were cultured by replacing it with phosphate-buffered saline (PBS) and irradiating it with UVB (25 mJ/cm^2) and adding 10 nM of a compound represented by Chemical Formula 1-1 (Cayman Chemical) to the NHEK culture medium. On the fourth day of the culture, cells were harvested to separate RNA and synthesize cDNA through RT-PCR (a reverse transcriptional polymerase chain reaction), and the synthesized cDNA was used to perform TAQMAN™ real-time PCR and measure gene expression levels of a keratinocyte differentiation marker, KRT10, and a desmosome constituent factor, DSC1, and the results are shown in FIGS. 1 and 2.

[2] = system: DSC1 (Desmocollin-1) gene expression in normal human epidermal keratinocytes (NHEK); test: Expression level of desmosome constituent factor DSC1 in UVB-irradiated NHEK (TAQMAN real-time PCR); type: cell-based; details: UVB 25 mJ/cm^2, 10 nM compound, harvested on fourth day of culture, versus UV-irradiated cells (FIG. 2)
Experimental: as §1

Compound: CC/C=C\C[C@H](O)/C=C/C=C\C=C\C=C\[C@@H](O)[C@@H](O)C/C=C\CCC(=O)O [Chemical Formula 1-1]
- gene expression level of KRT10 (keratin 10) [1]: increased again
- gene expression level of DSC1 [2]: increased again
